{"source": "patent US8883766B2", "about": "“Ion channel modulators and methods of use” (Vertex Pharmaceuticals Incorporated, priority 2007, dated 2014)"}
{"biological_target": "T1, NaV1.3 (Homo sapiens, UniProt Q9NY46)", "T1 construct": "expressed in transfected cells", "T1 sequence (Q9NY46 whole entry)": "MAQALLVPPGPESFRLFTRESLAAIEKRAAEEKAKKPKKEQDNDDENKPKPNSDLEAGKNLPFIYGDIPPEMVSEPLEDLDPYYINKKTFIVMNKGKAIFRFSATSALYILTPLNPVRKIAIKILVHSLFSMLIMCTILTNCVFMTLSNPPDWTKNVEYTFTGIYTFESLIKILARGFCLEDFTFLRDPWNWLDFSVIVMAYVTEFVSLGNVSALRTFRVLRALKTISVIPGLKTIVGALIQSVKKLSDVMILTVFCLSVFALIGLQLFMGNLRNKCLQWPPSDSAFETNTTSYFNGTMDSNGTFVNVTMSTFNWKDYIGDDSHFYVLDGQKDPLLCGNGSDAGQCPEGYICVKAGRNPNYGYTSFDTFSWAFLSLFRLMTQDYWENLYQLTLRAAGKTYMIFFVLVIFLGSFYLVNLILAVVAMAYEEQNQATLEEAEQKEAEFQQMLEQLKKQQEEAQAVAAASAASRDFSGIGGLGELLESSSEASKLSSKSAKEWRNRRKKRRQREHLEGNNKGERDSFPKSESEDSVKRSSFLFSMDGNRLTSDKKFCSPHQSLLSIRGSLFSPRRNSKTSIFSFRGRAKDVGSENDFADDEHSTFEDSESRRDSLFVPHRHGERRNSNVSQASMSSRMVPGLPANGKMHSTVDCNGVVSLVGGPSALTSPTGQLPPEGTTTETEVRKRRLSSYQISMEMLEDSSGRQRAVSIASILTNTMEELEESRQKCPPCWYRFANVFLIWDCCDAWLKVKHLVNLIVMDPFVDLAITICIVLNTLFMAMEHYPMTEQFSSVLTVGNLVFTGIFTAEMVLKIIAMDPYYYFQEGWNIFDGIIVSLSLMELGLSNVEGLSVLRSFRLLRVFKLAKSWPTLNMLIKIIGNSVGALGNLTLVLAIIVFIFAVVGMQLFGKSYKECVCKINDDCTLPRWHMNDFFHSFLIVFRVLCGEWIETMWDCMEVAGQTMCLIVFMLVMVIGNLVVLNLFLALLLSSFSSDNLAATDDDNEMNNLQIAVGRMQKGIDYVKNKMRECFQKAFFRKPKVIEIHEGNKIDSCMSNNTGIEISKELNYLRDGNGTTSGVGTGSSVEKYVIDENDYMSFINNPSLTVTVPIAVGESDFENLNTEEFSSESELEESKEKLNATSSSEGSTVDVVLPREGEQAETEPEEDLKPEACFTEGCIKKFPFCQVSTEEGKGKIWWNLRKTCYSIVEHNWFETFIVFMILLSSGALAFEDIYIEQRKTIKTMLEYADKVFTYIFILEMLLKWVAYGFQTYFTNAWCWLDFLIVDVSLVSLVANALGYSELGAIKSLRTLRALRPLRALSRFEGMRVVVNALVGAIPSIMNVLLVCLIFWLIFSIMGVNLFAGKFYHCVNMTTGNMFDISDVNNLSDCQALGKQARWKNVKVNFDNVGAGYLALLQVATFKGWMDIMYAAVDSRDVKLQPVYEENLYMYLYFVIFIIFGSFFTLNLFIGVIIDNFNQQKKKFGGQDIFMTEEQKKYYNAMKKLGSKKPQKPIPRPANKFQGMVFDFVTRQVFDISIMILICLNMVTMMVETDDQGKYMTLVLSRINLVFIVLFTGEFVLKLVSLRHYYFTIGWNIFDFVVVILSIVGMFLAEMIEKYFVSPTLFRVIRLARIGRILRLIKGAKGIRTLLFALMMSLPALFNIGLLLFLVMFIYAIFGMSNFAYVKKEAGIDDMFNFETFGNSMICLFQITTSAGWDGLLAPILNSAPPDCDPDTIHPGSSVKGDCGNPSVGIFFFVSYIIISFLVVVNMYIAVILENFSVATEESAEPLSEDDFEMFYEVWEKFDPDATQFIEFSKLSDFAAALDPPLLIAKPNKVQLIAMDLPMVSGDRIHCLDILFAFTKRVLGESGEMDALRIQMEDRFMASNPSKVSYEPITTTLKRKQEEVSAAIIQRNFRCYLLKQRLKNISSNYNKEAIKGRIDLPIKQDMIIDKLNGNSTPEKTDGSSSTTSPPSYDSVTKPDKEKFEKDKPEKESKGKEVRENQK", "experiment": "VIPR optical membrane potential assay with electrical stimulation, HEK293 cells stably expressing NaV1.3", "assay_type": "cell-based", "conditions": "compound activity for the NaV1.3 receptors", "method": "Compounds of the invention are useful as antagonists of voltage-gated sodium ion channels. Antagonist properties of test compounds were assessed as follows. Cells expressing the NaV of interest were placed into microtiter plates. After an incubation period, the cells were stained with fluorescent dyes sensitive to the transmembrane potential. The test compounds were added to the microtiter plate. The cells were stimulated with either chemical or electrical means to evoke a NaV dependent membrane potential change from unblocked channels, which was detected and measured with trans-membrane potential-sensitive dyes. Antagonists were detected as a decreased membrane potential response to the stimulus. The optical membrane potential assay utilized voltage-sensitive FRET sensors described by Gonzalez and Tsien (See, Gonzalez, J. E. and R. Y. Tsien (1995) “Voltage sensing by fluorescence resonance energy transfer in single cells” Biophys J 69(4): 1272-80, and Gonzalez, J. E. and R. Y. Tsien (1997) “Improved indicators of cell membrane potential that use fluorescence resonance energy transfer” Chem Biol 4(4): 269-77) in combination with instrumentation for measuring fluorescence changes such as the Voltage/Ion Probe Reader (VIPR®) (See, Gonzalez, J. E., K. Oades, et al. (1999) “Cell-based assays and instrumentation for screening ion-channel targets” Drug Discov Today 4(9): 431-439).\nThe following is an example of how NaV1.3 inhibition activity is measured using the optical membrane potential method #2. Other subtypes are performed in an analogous mode in a cell line expressing the NaV of interest.\nHEK293 cells stably expressing NaV1.3 are plated into 96-well microtiter plates. After an appropriate incubation period, the cells are stained with the voltage sensitive dyes CC2-DMPE/DiSBAC2(3) as follows.\n2×CC2-DMPE=20 μM CC2-DMPE: 10 mM CC2-DMPE is vortexed with an equivalent volume of 10% pluronic, followed by vortexing in required amount of HBSS containing 10 mM HEPES. Each cell plate will require 5 mL of 2×CC2-DMPE. 50 μL of 2×CC2-DMPE is added to wells containing washed cells, resulting in a 10 μM final staining concentration. The cells are stained for 30 minutes in the dark at RT.\n2×DISBAC2(3) with ABSC1=6 μM DISBAC2(3) and 1 mM ABSC1: The required amount of 10 mM DISBAC2(3) is added to a 50 ml conical tube and mixed with 1 μL 10% pluronic for each mL of solution to be made and vortexed together. Then HBSS/HEPES is added to make up 2× solution. Finally, the ABSC1 is added.\nThe 2×DiSBAC2(3) solution can be used to solvate compound plates. Note that compound plates are made at 2× drug concentration. Wash stained plate again, leaving residual volume of 50 μL. Add 50 μL/well of the 2×DiSBAC2(3) w/ ABSC1. Stain for 30 minutes in the dark at RT.\nThe electrical stimulation instrument and methods of use are described in ION Channel Assay Methods PCT/US01/21652, herein incorporated by reference. The instrument comprises a microtiter plate handler, an optical system for exciting the coumarin dye while simultaneously recording the coumarin and oxonol emissions, a waveform generator, a current- or voltage-controlled amplifier, and a device for inserting electrodes in well. Under integrated computer control, this instrument passes user-programmed electrical stimulus protocols to cells within the wells of the microtiter plate.\nUse the current-controlled amplifier to deliver stimulation wave pulses for 3 s. Two seconds of pre-stimulus recording are performed to obtain the un-stimulated intensities. Five seconds of post-stimulation recording are performed to examine the relaxation to the resting state.\nData are analyzed and reported as normalized ratios of background-subtracted emission intensities measured in the 460 nm and 580 nm channels. Background intensities are then subtracted from each assay channel. […]", "units": {"IC50": "µM"}}
{"molecule": "COC(=O)NS(=O)(=O)c1ccc(NC(=O)[C@H](C)n2ccc3cccc(F)c32)cc1", "note": "[Compound 68]", "IC50": "> 5"}
{"molecule": "COC(=O)NS(=O)(=O)c1ccc(NC(=O)[C@@H](CO)N2CCCc3cc(Cl)ccc32)cc1", "note": "[Compound 73]", "IC50": "> 5"}
{"molecule": "COC(=O)NS(=O)(=O)c1ccc(NC(=O)CCn2ccc3cccc(Cl)c32)cc1", "note": "[Compound 1]", "IC50": "> 5"}
{"molecule": "COC(=O)NS(=O)(=O)c1ccc(NC(=O)CCCOc2ccc(Cl)cc2Cl)cc1", "note": "[Compound 37]", "IC50": "> 5"}
{"molecule": "COC(=O)NS(=O)(=O)c1ccc(NC(=O)Cn2cc(C)c3cc(Cl)ccc32)cc1", "note": "[Compound 83]", "IC50": "> 5"}
{"molecule": "COC(=O)NS(=O)(=O)c1ccc(NC(=O)Cn2ccc3cc(F)ccc32)cc1", "note": "[Compound 27]", "IC50": "> 5"}
{"molecule": "COC(=O)NS(=O)(=O)c1ccc(NC(=O)COc2ccc(F)c(Cl)c2)cc1", "note": "[Compound 3]", "IC50": "> 5"}
{"molecule": "COC(=O)NS(=O)(=O)c1ccc(NC(=O)[C@H](C)N2CCCc3cc(Cl)ccc32)cc1", "note": "[Compound 75]", "IC50": "> 5"}
{"molecule": "COC(=O)NS(=O)(=O)c1ccc(NC(=O)C2(c3ccc4c(c3)OCO4)CC2)cc1", "note": "[Compound 38]", "IC50": "> 5"}
{"molecule": "COC(=O)NS(=O)(=O)c1ccc(N2CCN(C(=O)[C@@H](C)N3CCCc4cc(F)ccc43)CC2)cc1", "note": "[Compound 61, (R)-methyl 4-(4-(2-(6-fluoro-3,4-dihydroquinolin-1(2H)-yl)propanoyl)piperazin-1-yl)phenylsulfonylcarbamate]", "IC50": "> 5"}
{"molecule": "COC(=O)NS(=O)(=O)c1ccc(NC(=O)c2ccccc2)cc1", "note": "[Compound 9]", "IC50": "> 5"}
{"molecule": "COC(=O)NS(=O)(=O)c1ccc(NC(=O)[C@H](C)n2ccc3ccc(C(F)(F)F)cc32)cc1", "note": "[Compound 25]", "IC50": "> 5"}
{"molecule": "COC(=O)NS(=O)(=O)c1ccc(N2CC[C@H](N3CCCc4cc(Cl)ccc43)C2=O)cc1", "note": "[Compound 53, (S)-methyl 4-(3-(6-chloro-3,4-dihydroquinolin-1(2H)-yl)-2-oxopyrrolidin-1-yl)phenylsulfonylcarbamate]", "IC50": "> 5"}
{"molecule": "Cc1cc(C(=O)NS(=O)(=O)c2ccc(NC(=O)[C@@H](C)n3ccc4c(F)cccc43)cc2)c(C)o1", "note": "[Compound 66, (R)—N-(4-(2-(4-fluoro-1H indol-1-yl)propanamido)phenylsulfonyl)-2,5-dimethylfuran-3-carboxamide]", "IC50": "> 5"}
{"molecule": "COC(=O)NS(=O)(=O)c1ccc(NC(=O)[C@@H](C)N2CCCc3cccc(Cl)c32)cc1", "note": "[Compound 62]", "IC50": "> 5"}
{"molecule": "COC(=O)NS(=O)(=O)c1ccc(NC(=O)[C@H](C)N2CCCc3cc(F)ccc32)cc1", "note": "[Compound 67]", "IC50": "> 5"}
{"molecule": "COC(=O)NS(=O)(=O)c1ccc(NC(=O)Cn2c(C)cc3cc(Cl)ccc32)cc1", "note": "[Compound 33]", "IC50": "> 5"}
{"molecule": "COC(=O)NS(=O)(=O)c1ccc(NC(=O)[C@H](C)N2CCCc3ccccc32)cc1", "note": "[Compound 84]", "IC50": "> 5"}
{"molecule": "COC(=O)NS(=O)(=O)c1ccc(NC(=O)[C@@H](CC(C)C)N2CCCc3cc(Cl)ccc32)cc1", "note": "[Compound 86]", "IC50": "2 to 5"}
{"molecule": "COC(=O)NS(=O)(=O)c1ccc(NC(=O)CCc2ccc(OC)cc2)cc1", "note": "[Compound 48]", "IC50": "> 5"}
{"molecule": "COC(=O)NS(=O)(=O)c1ccc(NC(=O)Cn2cc(C#N)c3ccccc32)cc1", "note": "[Compound 19]", "IC50": "> 5"}
{"molecule": "COC(=O)NS(=O)(=O)c1ccc(NC(=O)NCc2ccc(Cl)c(Cl)c2)cc1", "note": "[Compound 30, methyl 4-(3(3,4-dichlorobenzyl)ureido)phenylsulfonylcarbamate]", "IC50": "> 5"}
{"molecule": "COC(=O)NS(=O)(=O)c1ccc(NC(=O)[C@@H](C)n2ccc3ccc(Cl)cc32)cc1", "note": "[Compound 16]", "IC50": "2 to 5"}
{"molecule": "COC(=O)NS(=O)(=O)c1ccc(NC(=O)C(C)n2ccc3c(F)cccc32)cc1", "note": "(stereo not shown) [Compound 59]", "IC50": "< 2"}
{"molecule": "COC(=O)NS(=O)(=O)c1ccc(C2CCN(C(=O)Cn3ccc4ccc(Cl)cc43)CC2)cc1", "note": "[Compound 32]", "IC50": "> 5"}
{"molecule": "COC(=O)NS(=O)(=O)c1ccc(N2CCN(C(=O)[C@@H](C)N3CCCc4cc(Cl)ccc43)CC2)cc1", "note": "[Compound 50]", "IC50": "> 5"}
{"molecule": "C[C@H](C(=O)Nc1ccc(S(=O)(=O)NC(=O)Oc2ccc(F)cc2)cc1)n1ccc2c(F)cccc21", "note": "[Compound 29]", "IC50": "> 5"}
{"molecule": "CCCCNC(=O)NS(=O)(=O)c1ccc(NC(=O)[C@@H](C)n2ccc3c(F)cccc32)cc1", "note": "[Compound 79]", "IC50": "> 5"}
{"molecule": "COC(=O)NS(=O)(=O)c1ccc(NC(=O)[C@H](C)n2ccc3c(F)cccc32)cc1", "note": "[Compound 17]", "IC50": "> 5"}
{"molecule": "COC(=O)NS(=O)(=O)c1ccc(NC(=O)CCn2ccc3cc(Cl)ccc32)cc1", "note": "[Compound 51]", "IC50": "> 5"}
{"molecule": "C[C@H](C(=O)Nc1ccc(S(=O)(=O)NC(=O)c2ccccc2)cc1)n1ccc2c(F)cccc21", "note": "[Compound 74, (R)—N-(4-(2-(4-fluoro-1H indol-1-yl)propanamido)phenylsulfonyl)benzamide]", "IC50": "> 5"}
{"molecule": "COC(=O)NS(=O)(=O)c1ccc(NC(=O)[C@@H](C)Oc2ccc(Cl)cc2C)cc1", "note": "[Compound 78]", "IC50": "> 5"}
{"molecule": "COC(=O)NS(=O)(=O)c1ccc(NC(=O)C(C)Oc2cccc(Cl)c2Cl)cc1", "note": "(stereo in doubt) [Compound 58, (R)-methyl 4-(2,3-dichlorophenoxy)propanamido) phenylsulfonylcarbamate]", "IC50": "> 5"}
{"molecule": "COC(=O)NS(=O)(=O)c1ccc(NC(=O)Cc2ccccc2)cc1", "note": "[Compound 56]", "IC50": "> 5"}
{"molecule": "COC(=O)NS(=O)(=O)c1ccc(NC(=O)C(C)Oc2ccc(Cl)cc2C)cc1", "note": "(stereo not shown) [Compound 35]", "IC50": "> 5"}
{"molecule": "C[C@H](C(=O)Nc1ccc(S(=O)(=O)NC(=O)N2CCN(C)CC2)cc1)n1ccc2c(F)cccc21", "note": "[Compound 57]", "IC50": "> 5"}
{"biological_target": "T1, NaV1.3", "experiment": "not given", "conditions": "read-out: TTX IC50; cited from earlier work", "units": {"IC50": "µM"}}
{"molecule": "NC1=N[C@H](O)[C@H]2[C@H]3O[C@]4(O)O[C@@H]([C@@H](O)[C@@]2(N1)[C@@H]4O)[C@]3(O)CO", "note": "[TTX, tetrodotoxin]", "IC50": 0.015}
